Source: patent US20090099169A1, “Benzofuran Compounds As EP1 Receptor Antagonists” (GLAXO GROUP LIMITED, priority 2006, published 2009)
Counter-ions that a name gives are not always drawn.

biological target: T1, human EP1 receptor (Homo sapiens, UniProt P34995); assay: human EP1 calcium mobilisation assay; assay type: cell-based; design: expressed in transfected cells; conditions: CHO-K1 cells, antagonism of PGE2; averages of a number of experiments; read-out: functional pKi value (human EP1 calcium mobilisation assay) (converted)
T1 sequence (P34995 1-402): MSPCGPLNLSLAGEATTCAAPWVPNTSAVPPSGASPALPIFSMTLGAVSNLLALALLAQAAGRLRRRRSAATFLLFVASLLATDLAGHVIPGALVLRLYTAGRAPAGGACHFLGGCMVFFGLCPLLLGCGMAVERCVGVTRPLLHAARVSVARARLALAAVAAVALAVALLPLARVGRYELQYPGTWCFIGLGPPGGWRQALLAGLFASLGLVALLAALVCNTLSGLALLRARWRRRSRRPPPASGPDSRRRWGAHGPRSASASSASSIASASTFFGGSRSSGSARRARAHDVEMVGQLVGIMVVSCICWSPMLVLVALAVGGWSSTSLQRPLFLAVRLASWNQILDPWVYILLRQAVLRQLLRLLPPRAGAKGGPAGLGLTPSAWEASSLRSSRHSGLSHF
Method: Briefly, the antagonist properties of compounds are assessed by their ability to inhibit the mobilisation of intracellular calcium ([Ca^2+]i) in response to activation of EP1 or EP3 receptors by the natural agonist hormone prostaglandin E2 (PGE2). Increasing concentrations of antagonist reduce the amount of calcium that a given concentration of PGE2 can mobilise. The net effect is to displace the PGE2 concentration-effect curve to higher concentrations of PGE2. The amount of calcium produced is assessed using a calcium-sensitive fluorescent dye such as Fluo-4, AM and a suitable instrument such as a Fluorimetric Imaging Plate Reader (FLIPR). Increasing amounts of [Ca^2+]i produced by receptor activation increase the amount of fluorescence produced by the dye and give rise to an increasing signal. The signal may be detected using the FLIPR instrument and the data generated may be analysed with suitable curve-fitting software.
The human EP1 or EP3 calcium mobilisation assay (hereafter referred to as ‘the calcium assay’) utilises Chinese hamster ovary-K1 (CHO-K1) cells into which a stable (PCIN; BioTechniques 20 (1996): 102-110) vector containing either EP1 or EP3 cDNA has previously been transfected. Cells are cultured in suitable flasks containing culture medium such as DMEM:F-12 supplemented with 10% v/v foetal calf serum, 2 mM L-glutamine, 0.25 mg/ml geneticin, 100 μM flurbiprofen and 10 μg/ml puromycin.
For assay, cells are harvested using a proprietary reagent that dislodges cells such as Versene. Cells are re-suspended in a suitable quantity of fresh culture media for introduction into a 384-well plate. Following incubation for 24 hours at 37° C. the culture media is replaced with a medium containing Fluo-4 and the detergent pluronic acid, and a further incubation takes place. Concentrations of compounds are then added to the plate in order to construct concentration-effect curves. This may be performed on the FLIPR in order to assess the agonist properties of the compounds. Concentrations of PGE2 are then added to the plate in order to assess the antagonist properties of the compounds.
The data so generated may be analysed by means of a computerised curve-fitting routine. The concentration of compound that elicits a half-maximal inhibition of the calcium mobilisation induced by PGE2 (pIC50) may then be estimated.

`Cc1cc(C(=O)NN2CCOCC2)nn1Cc1cc(Cl)cc2cc(C3CC3)oc12` [Example 31, 1-[(5-Chloro-2-cyclopropyl-1-benzofuran-7-yl)methyl]-5-methyl-N-4-morpholinyl-1H-pyrazole-3-carboxamide] and `Cc1cc(C(=O)NN2CCOCC2)nn1Cc1cc(C#N)cc2cc(C(C)C)oc12` [Example 45, 1-{[5-Cyano-2-(1-methylethyl)-1-benzofuran-7-yl]methyl}-5-methyl-N-4-morpholinyl-1H-pyrazole-3-carboxamide] cannot be ordered by Ki: no more than 316 nM for the first, no more than 316 nM for the second.

`CC(C)c1cc2cc(Cl)cc(Cc3ccc(-c4nc5cc(CN(C)C)ccc5[nH]4)o3)c2o1` [Example 11, 1-[2-(5-{[5-Chloro-2-(1-methylethyl)-1-benzofuran-7-yl]methyl}-2-furanyl)-1H-benzimidazol-5-yl]-N,N-dimethylmethanamine Hydrochloride] and `CC(C)c1cc2cc(Cl)cc(Cc3ccc(-c4nc5cc(CN6CCCC6)ccc5[nH]4)o3)c2o1` [Example 12, 2-(5-{[5-Chloro-2-(1-methylethyl)-1-benzofuran-7-yl]methyl}-2-furanyl)-5-(1-pyrrolidinylmethyl)-1H-benzimidazole Hydrochloride] cannot be ordered by Ki: no more than 316 nM for the first, no more than 316 nM for the second.

`Cc1cc(NC(=O)C2CCOCC2)nn1Cc1cc(C#N)cc2cc(C(C)C)oc12` [Example 70, N-(1-{[5-Cyano-2-(1-methylethyl)-1-benzofuran-7-yl]methyl}-5-methyl-1H-pyrazol-3-yl)tetrahydro-2H-pyran-4-carboxamide] and `Cc1cc(NC(=O)[C@H]2CCCO2)nn1Cc1cc(C#N)cc2cc(C(C)C)oc12` [Example 69, (2R)—N-(1-{[5-Cyano-2-(1-methylethyl)-1-benzofuran-7-yl]methyl}-5-methyl-1H-pyrazol-3-yl)tetrahydro-2-furancarboxamide] cannot be ordered by Ki: no more than 316 nM for the first, no more than 316 nM for the second.

`Cc1cc(C(N)=O)nn1Cc1cc(C#N)cc2cc(C(C)C)oc12` [Example 41, 1-{[5-Cyano-2-(1-methylethyl)-1-benzofuran-7-yl]methyl}-5-methyl-1H-pyrazole-3-carboxamide] and `Cc1cc(C(=O)O)nn1Cc1cccc2cc(C(C)C)oc12` [Example 20, 5-Methyl-1-{[2-(1-methylethyl)-1-benzofuran-7-yl]methyl}-1H-pyrazole-3-carboxylic Acid] cannot be ordered by Ki: no more than 316 nM for the first, no more than 316 nM for the second.

`CC(C)c1cc2cc(Cl)cc(Cc3ccc(C(=O)Nc4ccc(CN5CCOCC5)cc4)o3)c2o1` [Example 54, 5-{[5-Chloro-2-(1-methylethyl)-1-benzofuran-7-yl]methyl}-N-[4-(4-morpholinylmethyl)phenyl]-2-furancarboxamide Hydrochloride] and `CC(C)c1cc2cc(Cl)cc(Cc3ccc(C(=O)NN4CCOCC4)o3)c2o1` [Example 42, 5-{[5-Chloro-2-(1-methylethyl)-1-benzofuran-7-yl]methyl}-N-4-morpholinyl-2-furancarboxamide] cannot be ordered by Ki: no more than 316 nM for the first, no more than 316 nM for the second.

First: CC(C)c1cc2cc(Cl)cc(Cc3ccc(C(=O)NCCN(C)C)o3)c2o1 [Example 58, 5-{[5-Chloro-2-(1-methylethyl)-1-benzofuran-7-yl]methyl}-N-[2-(dimethylamino)ethyl]-2-furancarboxamidehydrochloride]
Second: CC(C)c1cc2cc(Cl)cc(Cc3ccc(C(=O)NN4CCCCC4)o3)c2o1 [Example 43, 5-{[5-Chloro-2-(1-methylethyl)-1-benzofuran-7-yl]methyl}-N-1-piperidinyl-2-furancarboxamide]
The Ki of the first is higher: 1000 to 1580 nM for the first, no more than 316 nM for the second.

Compared with `Cc1cc(C(=O)NCC2CCOCC2)nn1Cc1cc(Cl)cc2cc(C(C)C)oc12` [Example 61, 1-{[5-Chloro-2-(1-methylethyl)-1-benzofuran-7-yl]methyl}-5-methyl-N-(tetrahydro-2H-pyran-4-ylmethyl)-1H-pyrazole-3-carboxamide], `CCN1CCC(CNC(=O)c2cc(C)n(Cc3cc(Cl)cc4cc(C(C)C)oc34)n2)CC1` [Example 36, 1-{[5-chloro-2-(1-methylethyl)-1-beenzofuran-7-yl]methyl}-N-[(1-ethyl-4-piperidinyl)methyl]-5-methyl-1H-pyrazole-3-carboxamidehydrochloride] is higher in Ki: no more than 316 nM for the first, 1000 to 1580 nM for the second.

Compared with `CC(C)c1cc2cc(Cl)cc(Cc3cccc(C(N)=O)n3)c2o1` [Example 40, 6-{[5-Chloro-2-(1-methylethyl)-1-benzofuran-7-yl]methyl}-2-pyridinecarboxamide], `Cc1cc(C(=O)NC2CCNCC2)nn1Cc1cc(Cl)cc2cc(C(C)C)oc12` [Example 33, 1-{[5-chloro-2-(1-methylethyl)-1-benzofuran-7-yl]methyl}-5-methyl-N-4-piperidinyl-1H-pyrazole-3-carboxamide Hydrochloride] is higher in Ki: no more than 316 nM for the first, 1000 to 1580 nM for the second.

`CC(C)c1cc2cc(Cl)cc(Cc3ccc(-c4nc5cc(CN6CCN(C)CC6)ccc5[nH]4)o3)c2o1` [Example 13, 2-(5-{[5-Chloro-2-(1-methylethyl)-1-benzofuran-7-yl]methyl}-2-furanyl)-5-[(4-methyl-1-piperazinyl)methyl]-1H-benzimidazole Hydrochloride] was tested, and the Ki was no more than 316 nM.

biological target: T1, human EP1 receptor; assay: Binding assay for the human prostanoid EP1 receptor (radioligand competition); design: expressed in transfected cells; host or cells: CHO-K1 (membranes); conditions: CHO-K1 membranes; [3H]-PGE2 for Examples 1-17, 19, 33, 34, 60 and 61, 3-{2-[5-Bromo-2-(2,4-difluorobenzyloxy)-phenyl]-5-methyl-pyrrol-1-yl}-6-[3H3-methoxy]methoxy-benzoic acid for the remaining; averages of a number of experiments; read-out: pIC50 value (binding assay for the human prostanoid EP1 receptor) (converted)
Method: Compound potencies are determined using a radioligand binding assay. In this assay compound potencies are determined from their ability to compete with tritiated prostaglandin E2 ([^3H]-PGE2) for binding to the human EP1 receptor.
This assay utilises Chinese hamster ovary-K1 (CHO-K1) cells into which a stable vector containing the EP1 cDNA has previously been transfected. Cells are cultured in suitable flasks containing culture medium such as DMEM:F-12 supplemented with 10% v/v foetal calf serum, 2 mM L-glutamine, 0.25 mg/ml geneticin, 10 μg/ml puromycin and 10 μM indomethacin.
Cells are detached from the culture flasks by incubation in calcium and magnesium free phosphate buffered saline containing 1 mM disodium ethylenediaminetetraacetic acid (Na2EDTA) and […] indomethacin for 5 min. The cells are isolated by centrifugation at 250×g for 5mins and suspended in an ice cold buffer such as 50 mM Tris, 1 mM Na2EDTA, 140 mM NaCl, 10 μM indomethacin (pH 7.4). The cells are homogenised using a Polytron tissue disrupter (2×10 s burst at full setting), centrifuged at 48,000×g for 20mins and the pellet containing the membrane fraction is washed (optional) three times by suspension and centrifugation at 48,000×g for 20mins. The final membrane pellet is suspended in an assay buffer such as 10 mM 2-[N-morpholino]ethanesulphonic acid, 1 mM Na2EDTA, 10 mM MgCl2 (pH 6). Aliquots are frozen at −80° C. until required.
(§1) For the binding assay the cell membranes, competing compounds and [^3H]-PGE2 (3 nM final assay concentration) are incubated in a final volume of 100 μl for 30 min at 30° C. All reagents are prepared in assay buffer. Reactions are terminated by rapid vacuum filtration over GF/B filters using a Brandell cell harvester. The filters are washed with ice cold assay buffer, dried and the radioactivity retained on the filters is measured by liquid scintillation counting in Packard TopCount scintillation counter.
The data are analysed using non linear curve fitting techniques to determine the concentration of compound producing 50% inhibition of specific binding (IC50).
Alternatively a similar assay may be carried out using 3-{2-[5-Bromo-2-(2,4-difluoro-benzyloxy)-phenyl]-5-methyl-pyrrol-1-yl}-6-[^3H3-methoxy]methoxy-benzoic acid instead of [^3H]-PGE2.
For the binding assay using 3-{2-[5-Bromo-2-(2,4-difluoro-benzyloxy)-phenyl]-5-methyl-pyrrol-1-yl}-6-[^3H3-methoxy]methoxy-benzoic acid instead of [^3H]-PGE2 the assay is carried out using a similar procedure to that described above using [^3H]-PGE2 with the following changes:
as §1, with “The” for “For the binding assay the”, “3-{2-[5-Bromo-2-(2,4-difluoro-benzyloxy)-phenyl]-5-methyl-pyrrol-1-yl}-6-[^3H3-methoxy]methoxy-benzoic acid (0.2” for “[^3H]-PGE2 (3”, “400” for “100”, “45” for “30”, “37°” for “30°”, “water at ambient temperature,” for “ice cold assay buffer,”
The preparation of 3-{2-[5-Bromo-2-(2,4-difluoro-benzyloxy)-phenyl]-5-methyl-pyrrol-1-yl}-6-methoxy-benzoic acid is described in WO 03/101959 and in Hall et al, Biorg. Med. Chem. Lett., 2007, 17, 916-920. The tritiated version may be prepared via conventional routes, e.g. from 3-{2-[5-bromo-2-(2,4-difluoro-benzyloxy)-phenyl]-5-methyl-pyrrol-1-yl}-6-hydroxy-benzoic acid or 3-{2-[5-bromo-2-(2,4-difluoro-benzyloxy)-phenyl]-5-methyl-pyrrol-1-yl}-6-hydroxy-benzoic acid methyl ester.

`Cc1cc(NC(=O)c2ccc(CN3CCCC3)cc2)nn1Cc1cc(Cl)cc2cc(C(C)C)oc12` [Example 67] showed an IC50 of no more than 100 nM.
